Values after ≈ are worked out from the molar mass of the structure shown.

The conditions of this series: buffer; pH 7.4; 200.0 µM.
By solubility (kinetic) is commonly meant solubility judged after dilution from a stock solution rather than from solid. Consider `Cc1ccc(C(=O)O/N=C(\N)c2ccc(C(F)(F)F)cn2)cc1`, for which the solubility (kinetic) is less than 0.2 µg/mL. Then `CCN(CC(=O)N1CCCC1)S(=O)(=O)c1ccccc1`, with greater than 44.5 µg/mL. Then `Cc1ccc2cccc(OCCCOc3ccccc3CO)c2n1`, with 38.1 µg/mL (≈ 118 µM); and `O=C(Nc1ccccc1)c1cccc2c(Br)cccc12`, with less than 0.7 µg/mL. On to `N#Cc1ccc(C(=O)NC(=S)N2CCOCC2)cc1`, for which the kinetic solubility is greater than 41.3 µg/mL. Then `O=C(Nc1ccc(Cl)cc1)c1ccco1`, with 30.8 µg/mL (≈ 139 µM). `O=c1cc(C(F)(F)F)[nH]c2ccc(OC(F)(F)F)cc12`: the solubility (kinetic) was greater than 44.6 µg/mL. `Cc1cccc2c3c([nH]c12)CCNC3.Cl` came in with a solubility (kinetic) greater than 33.4 µg/mL. Then `Cc1ccc(C(=O)Nc2ccc(C)c(S(=O)(=O)N3CCOCC3)c2)c(C)c1`, with 37.9 µg/mL (≈ 97.6 µM). Then `O=C(COC(=O)COc1ccccc1)NC1CCS(=O)(=O)C1` (centres undefined), with greater than 49.1 µg/mL; and `CC1CN(S(=O)(=O)c2ccc(C(=O)O)cc2)CC(C)O1` (centres undefined), with greater than 44.9 µg/mL. Then `O=C(COC(=O)Cc1ccc(S(=O)(=O)N2CCOCC2)s1)Nc1ccccc1Cl`, with greater than 68.8 µg/mL; and `COCCNC(=O)C(NC(=O)C1CCC(C)CC1)C(C)C` (centres undefined), with greater than 44.8 µg/mL; and `Cc1cccc(-n2ccnc2CN2CCN(C(C)C)C(CCO)C2)c1` (centres undefined), with 49.7 µg/mL (≈ 145 µM). In turn, `O=C(CSc1nnc(-c2ccncc2)o1)N1CCCC1` showed a kinetic solubility greater than 43.6 µg/mL.

`CO/N=C(\C)C(Cc1ccc(Cl)nc1)Cc1ccc(Cl)nc1` showed a kinetic solubility greater than 50.7 µg/mL. Then `CN(C(=O)Cn1cc(C#N)c2ccccc21)c1ccccc1`, with 7.4 µg/mL (≈ 25.6 µM). Then `CCCOc1ccc(C(=O)Nc2cccnc2)cc1`, with 36 µg/mL (≈ 140 µM); and `CCN(C(=O)COC(=O)CCNS(=O)(=O)c1ccccc1F)c1c(N)n(Cc2ccccc2)c(=O)[nH]c1=O`, with greater than 82.1 µg/mL. Then `COc1ccccc1CC(=O)Nc1cccc(C)n1`, with greater than 38.4 µg/mL. In turn, `OC(c1ccccc1)c1nc2ccccc2[nH]1` (centres undefined) came in with a kinetic solubility greater than 33.6 µg/mL.

Take `COc1ccccc1/C=C/C(=O)NC(=S)Nc1ccccn1`: the kinetic solubility came to 1.3 µg/mL (≈ 4.15 µM).

Take `Br.c1ccc(NC2=NCCCS2)cc1`: the solubility (kinetic) is greater than 41 µg/mL. Then `CN1CCN(c2ccc(Cl)cc2NC(=O)/C=C/c2ccc(F)cc2)CC1`, with 38.4 µg/mL (≈ 103 µM). Then `CCN(CC(=O)Nc1c(F)cccc1F)C(=O)c1ccccn1`, with greater than 47.9 µg/mL. Then `CC(=O)c1ccc(OCCOc2ccc(C#N)cc2)cc1`, with 6.8 µg/mL (≈ 24.2 µM); and `Cc1snc(SCc2c(F)cccc2Cl)c1C#N`, with less than 0.3 µg/mL.

On to `C=CCn1c(SCC(C)=O)nc2sc3c(c2c1=O)CCC3`, for which the solubility (kinetic) is 4.6 µg/mL (≈ 14.4 µM).

In turn, `CCc1cccc(NS(=O)(=O)c2cccc3cccnc23)c1` had a solubility (kinetic) of 1 µg/mL (≈ 3.2 µM). Then `O=C(NCc1ccccc1)C1(c2cccc(F)c2)CCCC1`, with 12.2 µg/mL (≈ 41 µM); and `CN(C)C(C(=O)Nc1cc(Cl)cc(Cl)c1)c1ccccc1` (centres undefined), with 19.2 µg/mL (≈ 59.4 µM); and `CCOc1ccc(C(=O)NCC(=O)NCCOc2ccc(C)cc2)cc1`, with 10.4 µg/mL (≈ 29.2 µM). On to `COc1ccccc1C(=O)CSc1nccn1C`, for which the kinetic solubility is 35.9 µg/mL (≈ 137 µM). Then `CCOC(=O)C1=CCN(Cc2ccccc2)CC1.Cl`, with 37.8 µg/mL. The molecule `CN(C(=O)Nc1ccc(C(C)(C)C)cc1)C1CCCCC1` showed a solubility (kinetic) of less than 0.3 µg/mL. Then `CCN(CC(=O)Nc1c(F)cccc1F)C(=O)CCCc1c[nH]c2ccccc12`, with 7.4 µg/mL (≈ 18.5 µM).

With `COc1ccccc1/C=C/C(=O)OCC(=O)NC1CCS(=O)(=O)C1` (centres undefined), the solubility (kinetic) was greater than 53 µg/mL. Then `O=C(Nc1ccccc1)Nc1ccc2c(c1)CCC2`, with 0.4 µg/mL (≈ 1.59 µM); and `Cc1cccc(NC(=O)Cn2cc(C(=O)C3CC3)c3ccccc32)c1C`, with 0.6 µg/mL (≈ 1.73 µM). Then `CC1CN(C(=O)COC(=O)c2ccc(Cl)nc2)CC(C)O1` (centres undefined), with 42.3 µg/mL (≈ 135 µM); and `COc1ccc(NCC(=O)N2CCCC2)cc1Cl`, with 38 µg/mL (≈ 141 µM). Then `CC1CCN(C(=O)c2ccccc2NC(=O)c2cccc(S(=O)(=O)N(C)C)c2)CC1`, with 63.9 µg/mL (≈ 149 µM); and `CN(Cc1ccccc1)C(=O)COC(=O)c1ccc[nH]c1=O`, with greater than 45 µg/mL. Molecule `CCOc1cccc2sc(Cl)nc12` gave a solubility (kinetic) of 3.9 µg/mL (≈ 18.3 µM). `CC(=O)c1cccc(NC(=O)CCn2c(=O)oc3ccccc32)c1` had a kinetic solubility of 19.7 µg/mL (≈ 60.7 µM).

For `O=C(NCc1cccnc1)Nc1ccc(Cl)c(Cl)c1`, the kinetic solubility was greater than 44.4 µg/mL. Then `CCOC(=O)N1CCN(C(=O)/C=C/c2ccc(OC)cc2)CC1`, with 36.1 µg/mL (≈ 113 µM); and `O=C(COC(=O)c1ccccc1Br)NCCC1=CCCCC1`, with 22.5 µg/mL (≈ 61.4 µM). The molecule `O=C(Cn1cc(C(F)(F)F)ccc1=O)N/N=C/c1ccccc1` came in with a kinetic solubility greater than 48.5 µg/mL. Then `O=C(NNC(=O)C1CCN(c2ncccn2)CC1)c1ccncc1`, with greater than 49 µg/mL; and `CC(NS(=O)(=O)c1ccc(Cl)cc1)C(=O)N1CCOCC1` (centres undefined), with 39.7 µg/mL (≈ 119 µM).

In turn, `O=C(NCCCn1ccnc1)c1ccc(Cl)c(Cl)c1` returned a solubility (kinetic) greater than 44.7 µg/mL.

In turn, `COc1ccc(N2C(=O)CC(C3CCCO3)C2=O)cc1` (centres undefined) registered a solubility (kinetic) greater than 41.3 µg/mL. Then `Cc1oc2ccccc2c1CC(=O)NCCCN(C)C`, with greater than 41.2 µg/mL. Then `CCOP(=O)(c1ccc(N(C)C)cc1)C(O)c1ccncc1` (centres undefined), with greater than 48 µg/mL. Turning to `O=C(NCC1CCCO1)c1cccc(NC(=O)c2ccccc2)c1` (centres undefined), the solubility (kinetic) is greater than 48.7 µg/mL. Then `COc1ccccc1C(=O)N/C(=C\c1ccccc1)C(=O)NCc1ccco1`, with greater than 56.5 µg/mL; and `CS(=O)(=O)Nc1ccc(Oc2ncccn2)cc1`, with greater than 39.8 µg/mL; and `Cc1ccc(NC2Sc3ccccc3NC2=O)cc1` (centres undefined), with 9.6 µg/mL (≈ 35.5 µM). Then `CCCc1cc(=O)[nH]c(SCC(=O)Nc2ccc(C(=O)Nc3ccccc3OC)cc2)n1`, with 6.7 µg/mL (≈ 14.8 µM); and `COc1ccc(S(=O)(=O)N2CCOCC2)cc1NC(=O)CSc1nc(C)c(C)c(C)n1`, with 8.5 µg/mL (≈ 18.2 µM). Then `Cc1ccc(NC(=O)CN(C)Cc2ccc(Cl)cc2)cc1`, with 20.6 µg/mL (≈ 68 µM).

The molecule `CC(=O)N1CCN(c2ccc(NC(=O)c3ccc(F)cc3)cc2)CC1` yielded a kinetic solubility of 10.6 µg/mL (≈ 31 µM). Then `Cc1ccc(CSc2nc(N)cc(=O)[nH]2)cc1`, with 13.1 µg/mL (≈ 53 µM); and `O=C(CC1SCCNC1=O)Nc1ccc(Cl)cc1` (centres undefined), with greater than 42.7 µg/mL. Then `O=C1CN(S(=O)(=O)c2ccccc2C(F)(F)F)CCN1`, with 40.3 µg/mL (≈ 131 µM); and `COc1ccc(Cn2cnc([N+](=O)[O-])c2)cc1[N+](=O)[O-]`, with greater than 41.7 µg/mL; and `O=C(NCc1ccccc1)c1cc[n+]([O-])cc1`, with greater than 34.2 µg/mL. Then `O=C(Nc1ccccc1)C1CC(=O)n2c(nc3ccccc32)N1` (centres undefined), with 0.9 µg/mL (≈ 2.94 µM); and `NC(=O)COC(=O)C1c2ccccc2Oc2ccccc21`, with 41.9 µg/mL (≈ 148 µM). As to `CNC(=O)COC(=O)c1ccccc1NC(=O)c1ccco1`, the kinetic solubility was greater than 45.3 µg/mL.

For `Cc1[nH]c2ccccc2c1C(C[N+](=O)[O-])c1ccco1` (centres undefined), the kinetic solubility came out at 37.9 µg/mL (≈ 140 µM).

Molecule `CC(C)CC(=O)Nc1cc2c3c(c1)CCN3C(=O)CC2` showed a solubility (kinetic) greater than 40.9 µg/mL. Then `Cc1ccc(NC(=O)CSc2nnc(/N=C/N(C)C)s2)cc1`, with greater than 50.3 µg/mL; and `CCC(C)N1CCN(S(=O)(=O)Cc2ccccc2)CC1` (centres undefined), with greater than 44.5 µg/mL. Then `Cc1ccc(C(=O)NC2CC(C)(C)NC(C)(C)C2)cc1`, with 40.2 µg/mL (≈ 146 µM); and `COC(=O)CNC(=O)CCc1nnc(C2(c3ccc(Cl)cc3)CCC2)o1`, with greater than 56.7 µg/mL. `Cc1ccc(NC(=O)CN2C(=O)c3ccccc3C2=O)c(C)c1` had a solubility (kinetic) of 4.4 µg/mL (≈ 14.3 µM). Then `Cc1ccc2nc(SCC(=O)Nc3nonc3C)[nH]c2c1`, with greater than 45.5 µg/mL. Turning to `NNC(=O)CCN1CCN(Cc2ccccc2)CC1`, the kinetic solubility was greater than 39.4 µg/mL. For the molecule `S=C(c1ccc(-c2cccc(Cl)c2)o1)N1CCCCC1`, the kinetic solubility is 6.1 µg/mL (≈ 19.9 µM).

Regarding `COCCn1cc(-c2csc(N)n2)c2ccccc21`, the kinetic solubility was found to be 35.1 µg/mL (≈ 128 µM). Then `CC(C)n1c(COc2ccccc2)nc2ccccc21`, with 24.1 µg/mL (≈ 90.5 µM); and `O=C(COC(=O)c1ccccc1Br)NCc1cccs1`, with greater than 53.1 µg/mL. Then `CSc1ccc(NC(=O)/C=C/C(=O)O)cc1`, with 30.8 µg/mL (≈ 130 µM); and `COc1ccc2c(c1)CCCC21NC(=O)N(CC(=O)N2CC(C)OC(C)C2)C1=O` (centres undefined), with greater than 60.2 µg/mL; and `CCOC(=O)/C=C/C(=O)OCC(=O)Nc1cccc(Br)c1`, with 13.8 µg/mL (≈ 38.7 µM). The molecule `CSc1ccccc1NC(=O)C1CC(c2ccccc2Cl)=NO1` (centres undefined) registered a solubility (kinetic) of 0.8 µg/mL (≈ 2.31 µM).

The molecule `Cc1nc2ccccn2c1-c1csc(Nc2ccc(C(=O)O)cc2)n1` registered a kinetic solubility of 2.5 µg/mL (≈ 7.13 µM). This solubility kinetic lies about 3.1-fold higher than the previous one. `CCc1ccccc1NC(=O)C1CCCN(c2nccc(C)n2)C1` (centres undefined) returned a kinetic solubility of 3.4 µg/mL (≈ 10.5 µM). The solubility kinetic values of the last two molecules are within 1.5-fold of each other.

Consider `CN1CCN(CC(=O)Nc2nc3ccccc3s2)CC1.O=CO`, for which the solubility (kinetic) stood at 50.4 µg/mL. As for `Cc1cc(C)cc(N2CC(C)Cn3c2nc2c3c(=O)[nH]c(=O)n2C)c1` (centres undefined), the kinetic solubility stood at 13 µg/mL (≈ 38.3 µM). Then `O=C(Nc1nccs1)c1ccc([N+](=O)[O-])cc1Cl`, with 3.8 µg/mL (≈ 13.4 µM); and `O=C1Nc2ccccc2C1Cc1ccc(OC(F)(F)F)cc1` (centres undefined), with 37.3 µg/mL (≈ 121 µM). Regarding `Cc1ccc(C(=O)O/N=C(\c2ccccc2)c2ccncc2)cc1`, the kinetic solubility turned out to be 0.6 µg/mL (≈ 1.9 µM).

Regarding `CC(C)(C)N(Cc1ccccc1)C(=O)COC(=O)c1ccc(N2CCCC2=O)cc1`, the kinetic solubility is 2.5 µg/mL (≈ 6.12 µM). Molecule `CCC(=O)N(Cc1cc(=O)[nH]c2ccccc12)c1ccccc1` yielded a kinetic solubility greater than 46 µg/mL.

On to `COCC(=O)NC1CC(C)(C)Cc2c1cnn2-c1ccc(F)cc1` (centres undefined), for which the solubility (kinetic) is greater than 49.7 µg/mL. Then `CCOc1ccc(NC(=O)c2ccc3[nH]c(=O)c(=O)[nH]c3c2)cc1`, with 4.8 µg/mL (≈ 14.8 µM). Take `COc1ccc(CC(=O)Nc2cccc3c2CCCC3)cc1`: the solubility (kinetic) worked out at 1.8 µg/mL (≈ 6.09 µM).

Turning to `COCc1c(C(=O)NCCc2ccc(OC(F)F)cc2)oc2ccccc12`, the kinetic solubility was determined as 13.5 µg/mL (≈ 36 µM). Then `Cc1ccc(CN2C(=O)CNC2=S)cc1`, with greater than 33 µg/mL; and `CCOC(=O)C1CCN(C(=O)Nc2ccc(C)c(Cl)c2)CC1`, with 6.9 µg/mL (≈ 21.2 µM).

For `Cc1cc(C(=O)NC(C)C2CCCO2)c(C)o1` (centres undefined), the kinetic solubility was greater than 35.6 µg/mL.
